One molecule from patent publication US10154992B2, “Compounds and methods for treating HIV infection” (THE REGENTS OF THE UNIVERSITY OF CALIFORNIA, priority 2016, dated 2018) can be followed below.

As usually defined, the solubility is the concentration that dissolves in the medium under given conditions. Broadly, the Papp is a coefficient for how fast a substance crosses the barrier.

Converted amounts (≈) assume the structure as drawn. Read-outs that look alike come from different tables or passages of the source.

Data set [1] can be described thus: Human liver microsome stability. In kind it is in vitro ADME. The settings on record: human liver microsomes; read-out: HLM T1/2. From the text:
The more lipophilic analogs 4a and 4e also appear more prone to oxidative metabolism in the presence of human liver microsomes. This is perhaps unsurprising given the presence of methoxyphenyl (4a) and benzylic methylene (4e) functions, both potential sites of oxidative metabolism.
Background: Microsomes from liver hold many membrane-bound enzymes, among them those of drug oxidation.

For the next data set, the system named is HIV-1 isolate NL4-3. The data set can be described thus: Virus spreading / replication assay in Jurkat cells, p24 ELISA. In kind it is cell-based. On the procedure: (§1) Virus spreading assay. Jurkat (E6-1) cells (NIH AIDS Reagent Program) were cultured in RPMI media supplemented with 25 mM HEPES pH 7.4, 10% heat-inactivated fetal calf serum (Hyclone, Waltham Mass.), and 1% penicillin/streptomycin. 2.5×10^5 Jurkat cells were inoculated with 250 pg p24 in 250 μl media in a 96-well flat bottom polystyrene cell culture microplate. Input virus was removed after 18 hours via washing cells phosphate-buffered saline (PBS). Cells were resuspended in 250 μl of media containing compounds at the described concentrations. Cells were incubated at 37° C., 5% CO2 and supernatant samples were removed every 48 hours and replaced with fresh media containing the compounds. Viral replication was quantified using ELISA to quantify p24 viral capsid protein in the culture supernatant. Mouse monoclonal and rabbit polyclonal α-p24 antibodies used in the ELISA were obtained from the NIH AIDS Reagent Program. Toxicity was monitored using the MTT cell viability assay (Mosmann, T. (1983). J Immunol Methods 65, 55-63).
For orientation: An ELISA detects its analyte on a solid surface through an enzyme-linked reagent.

For data set [2], the system named is A7854G mutant (RRE) virus. Put plainly: Replication of RRE A7854G resistant virus. In kind it is cell-based, HIV.
Data set [3] in a line: Aqueous solubility pH 7.4. The settings on record: aqueous solution, pH 7.4, pH 7.4, aqueous buffer. In kind it is physicochemical. From the text: (§2) We next evaluated analogs 2b, 2f, 4a, and 4e in a panel of standard in vitro ADME assays to assess drug-like properties and the potential for efficacy in animals.
The target in a further data set is T1, Rev-RRE IIB interaction (Human immunodeficiency virus type 1 group M subtype B, UniProt P04608+P04618).
T1 construct: with a fusion to HIV Rev (residues 3-70) was generated; expressed in transfected cells
T1 sequence (P04608 whole entry, looked up, the tested form may be a part): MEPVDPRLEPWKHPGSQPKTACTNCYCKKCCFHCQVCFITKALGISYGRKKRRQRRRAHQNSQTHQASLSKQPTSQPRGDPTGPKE
T1 sequence (P04618 whole entry, looked up, the tested form may be a part): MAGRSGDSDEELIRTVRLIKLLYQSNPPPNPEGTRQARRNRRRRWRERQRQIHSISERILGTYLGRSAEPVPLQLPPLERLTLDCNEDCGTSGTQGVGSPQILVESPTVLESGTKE
In kind it is cell-based, HIV. On the procedure:
A library of approximately 4500 carboxamide-containing compounds was assembled and tested in the reporter cell line at 30 μM. Reporter cells were plated in a white 96-well plate and compounds were added to the cells using a Biomek FX robotic liquid handler (Beckman Coulter). The cells were incubated with the compound for 48 hours then assayed for luciferase activity (Promega Bright Glo). The cytotoxicity of each compound was determined in parallel via MTT-based cell viability assays.
Cells were counted and plated into white 384-well or 96-well cell-culture treated assay plates and compounds were added. After 48 hours, the cells were prepared for luminescence assays that were performed on a plate reader (Tecan Evolution or MD Analyst). The cytotoxicity of each compound was determined in parallel via MTT-based cell viability assays.
Tat hybrid reporter assay. […] Previously characterized thienopyridines and diaminoacridine were used as controls. Cells were counted and plated into white 384-well cell-culture treated assay plates and compounds were added. After 48 hours, the cells were prepared for lumincescence assays that were performed on a plate reader (Tecan Evolution or MD Analyst). The cytotoxicity of each compound was determined in parallel via MTT-based cell viability assays.
The RRE IIB-Rev screening cell line was plated in 384-well assay plates and compounds were added to the cells to a final concentration of 30 μM. Cells were prepared and assayed for luciferase activity. […] In parallel, MTT cell viability assays were performed to assess the toxicity of compounds and minimize the level of false positives.

The nature of the next data set: Caco-2 permeability. In kind it is in vitro ADME. The following applies: human.
From the text: as §2

Data set [4] in a line: MTT cell viability in Jurkat replication assay. The following applies: human, Jurkat (E6-1) cells, pH 7.4; Jurkat infectivity assay; read-out: TC50 (MTT cell viability). In kind it is cell-based. On the procedure:
as §1

For data set [5], the system named is HIV-1 provirus in U1 cells. Put plainly: U1 activation (latency) assay, p24 ELISA. In kind it is cell-based. The settings on record: for IC50: Human immunodeficiency virus 1. The essentials: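 PHA-activated U1 cells (latent integrated HIV-1 provirus, 250,000/well) treated with compound at final 1 to 10,000 nM for 3 days; virus production measured by p24 ELISA of cell-free supernatant. Cell viability assessed by MTT in parallel cultures.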

The test system of data set [6] is HIV-1 isolate NL4-3 deleted for Vpu. The data set can be described thus: Replication assay in Jurkat cells with Vpu-deleted virus. In kind it is cell-based. The settings on record: Human immunodeficiency virus 1, NL43, Jurkat, read-out: IC50 value for isolate NL4-3 deleted for Vpu. On the procedure:
FIG. 10. In embodiments, HIV viruses that are defective or deleted for Vpu are resistant to the compounds described herein. Replication assays with HIV-1 isolate NL4-3 or NL4-3 deleted for Vpu in Jurkat cells. Replication spreading assays were performed with compound at doses ranging from 1 nM to 316 nM in triplicate. Supernatants were collected every 48-72 hours and p24 values were determined by ELISA. FIG. 10 corresponds to analog 4e with HIV-1 isolate NL4-3 in Jurkat cells and with HIV-1 isolate NL4-3 deleted for Vpu in Jurkat cells.
as §1, with “Cells were incubated at 37° C., 5% CO2 and supernatant samples were removed every 48 hours and replaced with fresh media containing the compounds.” left out, “Mouse monoclonal and rabbit polyclonal α-p24 antibodies used in the ELISA were obtained from the NIH AIDS Reagent Program.” left out, “55-63). […]” for “55-63).”

With `NC(=O)c1cc2c(-c3ccc4c(c3)CCO4)cncc2s1` [Compound 4e, 4-(2,3-dihydro-1-benzofuran-5-yl)thieno[2,3-c]pyridine-2-carboxamide], the half-life in [1] is 18 min. The IC50 with HIV-1 isolate NL4-3 (Human immunodeficiency virus 1, NL43, Jurkat, FIG. 17, first pair of values, read-out: IC50 NL4-3 control) is 6.2 nM; in the data set with HIV-1 isolate NL4-3 (Human immunodeficiency virus 1, NL43, Jurkat, FIG. 17, second pair of values ('Notably'), read-out: IC50 control), 25.9 nM; in the data set with HIV-1 isolate NL4-3 (Human immunodeficiency virus 1, NL43, Jurkat, Table 2, NL4-3, read-out: Jurkat HIV-1 replication assay), less than 100 nM; in the data set with HIV-1 isolate NL4-3 (Human immunodeficiency virus 1, NL43, Jurkat, read-out: IC50 in the HIV replication assay), 4 nM; with HIV-1 isolate NL4-3 (Human immunodeficiency virus 1, NL43, Jurkat cells, wild type virus, Vpu experiment (FIG. 10), read-out: IC50 value for isolate NL4-3), 5 nM; in [2] (Human immunodeficiency virus 1, read-out: IC50 A7854G mutant), 218 nM. The IC50 in data set [2] (Human immunodeficiency virus 1, read-out: IC50 resistant-virus) was 5.1 nM; in data set [5] (Table 2, read-out: U1 cell IC50), less than 100 nM; in data set [5] (read-out: IC50 in the U1 assay), 9 nM; in data set [6] it was 150 nM. The solubility in [3] amounted to 0.28 µM (≈ 0.083 µg/mL). Besides, the “activity in the Tat-hybrid reporter assay” value on Rev-RRE IIB interaction is reported as “low-nM potency”. In “Caco-2 permeability”, this molecule had a Papp of 66.6 ×10⁻⁶ cm/s. Further, the CC50 in data set [4] is less than 40000 nM. The “potency in the U1 assay” value in data set [5] was “low-nM potency”.
